Laboratory results from US8912221B2, “Biaryl amide derivatives” (Hoffmann-La Roche Inc., priority 2010, dated 2014).
pIC50, pKi: −log10 of the molar value.

Tests used:
Bradykinin-1 receptor [1] = molecular target: T1, Bradykinin-1 receptor (Homo sapiens (Human), UniProt P46663); assay: Receptor Binding Assay; details: membranes from CHO-K1 cells overexpressing Bradykinin-1 receptor; 6 nM [3H]Kallidin (Des Arg10, Leu9); read-out: B1R Binding Ki
Method: Binding assays were done with membranes from CHO-K1 cells overexpressing Bradykinin-1 receptor.
For binding, Bradykinin-1 receptor antagonist compounds were added in various concentrations in 50 mM Tris pH 7.4, 5 mM MgCl2 together with 6 nM Kallidin (Des Arg^10, Leu^9), [3,4-Prolyl-3,4-^3H(N)] (PerkinElmer, 1.85-4.44 TBq/mmol) to 40 μg membrane protein containing approximately 1 fmol Bradykinin-1 receptor and incubated for 15 min at 27° C. To determine non-specific binding 10 μM Lys-(Des-Arg^9)-Bradykinin (Bachem) was added. Membranes were harvested through GF/B (glass fiber filter; PerkinElmer) plates, equilibrated with 0.5% polyethylenimine, air dried at 50° C. for 2 hr. Radioactivity was determined by counting in a topcounter (NXT Packard). Specific binding was defined as total binding minus nonspecific binding and typically represents about 90-95% of the total binding. Antagonist activity is expressed as Ki: inhibitor concentration required for 50% inhibition of specific binding corrected for the concentration of the radioligand.

Bradykinin-1 receptor [2] = molecular target: T1, Bradykinin-1 receptor; assay: Calcium Mobilization Assay; assay type: cell-based; details: GeneBLAzer Bradykinin (B1)-NFAT-bla CHO-K1 cells; antagonist activity, FLIPR; read-out: Ca mobilization IC50
Method: Calcium Mobilization Assay
GeneBLAzer® Bradykinin (B1)-NFAT-bla CHO-K1 cells (from Invitrogen) stably overexpressing the human bradykinin 1 receptor were cultured in DMEM (high glucose) supplemented with 10% dialysed FBS, 1% NEAA (non essential amino acids) 1% penicillin/streptomycin, 1% G418 and 0.1 mg/ml zeocin.
For the assay cells were grown overnight in 384-well black clear flat bottom polystyrene plates (Costar) at 37° C. at 5% CO2. After washing with DMEM, 20 mM Hepes, 2.5 mM probenecid, 0.1% BSA (DMEM assay buffer) cells were loaded with 4 μM Fluo-4 in the same DMEM assay buffer for 2 hours at 30° C. Excess dye was removed and cells were washed with DMEM assay buffer. 384-well compound plates were prepared with DMEM assay buffer/0.5% DMSO with or without various concentrations of test compounds. Usually compounds were tested for agonist and antagonist activity.
Test compounds were added to the assay plate and agonist activity was monitored as fluorescence for 80 seconds with a FLIPR (488 nm excitation; 510-570 nm emission; Molecular Devices). […] Increases in intracellular calcium are reported as maximum fluorescence after agonist exposure minus basal fluorescence before exposure. Antagonist activity is indicated as inhibitor concentration required for 50% inhibition of specific calcium increases.

T1 sequence (P46663 whole entry): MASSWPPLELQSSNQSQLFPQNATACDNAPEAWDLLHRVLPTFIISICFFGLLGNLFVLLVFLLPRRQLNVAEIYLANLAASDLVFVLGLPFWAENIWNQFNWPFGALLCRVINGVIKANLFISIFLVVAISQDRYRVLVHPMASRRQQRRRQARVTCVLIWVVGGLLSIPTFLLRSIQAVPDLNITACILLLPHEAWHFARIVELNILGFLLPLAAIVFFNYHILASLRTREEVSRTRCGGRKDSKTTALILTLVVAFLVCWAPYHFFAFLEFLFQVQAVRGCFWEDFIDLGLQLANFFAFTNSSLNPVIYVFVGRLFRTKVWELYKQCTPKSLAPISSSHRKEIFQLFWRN

Cc1cc(C(=O)NC2(C(=O)N[C@H](C)c3ccc(-c4cc(Cl)cc(F)c4-c4noc(C)n4)cc3F)COC2)on1 [Example 24, 3-Methyl-isoxazole-5-carboxylic acid (3-{(R)-1-[5′-chloro-3,3′-difluoro-2′-(5-methyl-[1,2,4]oxadiazol-3-yl)-biphenyl-4-yl]-ethylcarbamoyl}-oxetan-3-yl)-amide]
pKi (Bradykinin-1 receptor [1]): 8.92
pIC50 (Bradykinin-1 receptor [2]): 10.00

C[C@@H](NC(=O)C1(NC(=O)c2ccno2)COC1)c1ccc(-c2cc(Cl)cc(Cl)c2OCC(F)F)cc1F [Example 32, Isoxazole-5-carboxylic acid (3-{(R)-1-[3′,5′-dichloro-2′-(2,2-difluoro-ethoxy)-3-fluoro-biphenyl-4-yl]-ethylcarbamoyl}-oxetan-3-yl)-amide]
pKi (Bradykinin-1 receptor [1]): 8.64
pIC50 (Bradykinin-1 receptor [2]): 9.70

COCC(=O)NC1(C(=O)N[C@H](C)c2ncc(-c3cc(Cl)cc(Cl)c3OCC(F)F)cc2F)COC1 [Example 42, 3-(2-Methoxy-acetylamino)-oxetane-3-carboxylic acid ((R)-1-{5-[3,5-dichloro-2-(2,2-difluoro-ethoxy)-phenyl]-3-fluoro-pyridin-2-yl}-ethyl)-amide]
pKi (Bradykinin-1 receptor [1]): 6.92
pIC50 (Bradykinin-1 receptor [2]): 6.70

C[C@@H](NC(=O)C1(NC(=O)C(F)(F)F)COC1)c1ccc(-c2cc(Cl)cc(F)c2-c2nnn(C)n2)cc1F [Example 22, 3-(2,2,2-Trifluoro-acetylamino)-oxetane-3-carboxylic acid {(R)-1-[5′-chloro-3,3′-difluoro-2′-(2-methyl-2H-tetrazol-5-yl)-biphenyl-4-yl]-ethyl}-amide]
pKi (Bradykinin-1 receptor [1]): 8.77
pIC50 (Bradykinin-1 receptor [2]): 9.30

Cc1nc(-c2c(F)cc(Cl)cc2-c2cnc([C@@H](C)NC(=O)C3(NC(=O)c4cc(F)cc(C(F)(F)F)c4)COC3)c(F)c2)no1 [Example 1, 3-(3-Fluoro-5-trifluoromethyl-benzoylamino)-oxetane-3-carboxylic acid ((R)-1-{5-[5-chloro-3-fluoro-2-(5-methyl-[1,2,4]oxadiazol-3-yl)-phenyl]-3-fluoro-pyridin-2-yl}-ethyl)-amide]
pKi (Bradykinin-1 receptor [1]): 8.59
pIC50 (Bradykinin-1 receptor [2]): 9.52

Cc1nc(-c2c(F)cc(Cl)cc2-c2cnc([C@@H](C)NC(=O)C3(NC(=O)c4cn(C)cn4)COC3)c(F)c2)no1 [Example 27, 1-Methyl-1H-imidazole-4-carboxylic acid [3-((R)-1-{5-[5-chloro-3-fluoro-2-(5-methyl-[1,2,4]oxadiazol-3-yl)-phenyl]-3-fluoro-pyridin-2-yl}-ethylcarbamoyl)-oxetan-3-yl]-amide]
pKi (Bradykinin-1 receptor [1]): 7.08
pIC50 (Bradykinin-1 receptor [2]): 6.97

Cc1cc(C(=O)NC2(C(=O)N[C@H](C)c3ncc(-c4cc(Cl)cc(Cl)c4OCC(F)F)cc3F)COC2)on1 [Example 9, 3-Methyl-isoxazole-5-carboxylic acid [3-((R)-1-{5-[3,5-dichloro-2-(2,2-difluoro-ethoxy)-phenyl]-3-fluoro-pyridin-2-yl}-ethylcarbamoyl)-oxetan-3-yl]-amide]
pKi (Bradykinin-1 receptor [1]): 8.29
pIC50 (Bradykinin-1 receptor [2]): 8.96
